For one test, the target named is FGFR3 (h) (Homo sapiens, UniProt P22607). Kind of test: FGFR3 (enzymatic assay), TR-FRET. The format is biochemical. Particulars: read-out: FGFR 3 pIC50 (converted). The protocol:
In a final reaction volume of 30 μL, FGFR3 (h) (40 ng/ml) was incubated with 50 mM HEPES pH 7.5, 6 mM MnCl2, 1 mM DTT, 0.1 mM Na3VO4, 0.01% Triton-X-100, 500 nM Btn-Flt3 and 25 μM ATP in the presence of compound (1% DMSO final). […] Time-Resolved Fluorescence Resonance Energy Transfer (TR-FRET) signal (ex340 nm. Em 620 nm, em 655 nm) was measured afterwards and results are expressed in RFU (Relative Fluorescence Units).
Background: TR-FRET usually uses a lanthanide donor and a delayed reading to cut background.

Test [1] concerns Ba/F3-FGFR1-transfected cells in the presence of 10 ng/ml murine IL3. In words: Ba/F3-FGFR1 (plus IL3) cellular proliferation counterscreen, Alamar Blue. In kind it is cell-based. The settings on record: plus IL3, 384 well; for IC50: Mus musculus, read-out: BAF3-FGFR 1 (PLUS IL3) 384 well pIC50 (converted). The gist of the method: (§1)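 Cells (20000 per well in 384-well format or 10000 per well in 96-well format) in phenol red-free RPMI-1640 with 10% FBS were exposed to compound in DMSO for 24 h at 37 °C, 5% CO2. Resazurin-based Alamar Blue was then added for 4 h, and fluorescence was read at ex 540/em 590 nm.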

The target of test [2] is Ba/F3-FGFR1-transfected cells (Homo sapiens, UniProt P11362). Kind of test: Ba/F3-FGFR1 (minus IL3) cellular proliferation assay, Alamar Blue. The format is cell-based. The settings on record: minus IL3, 384 well. The gist of the method:
as §1
(Alamar Blue is a resazurin reagent that responds to reducing activity.)

In test [3] the target is Ba/F3-FGFR4-transfected cells (Homo sapiens, UniProt P22455). In words: Ba/F3-FGFR4 cellular proliferation assay, Alamar Blue. The format is cell-based. The gist of the method: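 Ba/F3 cells transfected with FGFR4, 20000 cells/well in phenol red-free RPMI-1640 with 10% FBS, were exposed to compound for 24 h at 37° C, 5% CO2. Alamar Blue (resazurin) was then added for 4 h, and fluorescence was read at ex 540/em 590 nm.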

The target in the next test is KDR (h) (VEGFR2) (Homo sapiens, UniProt P35968). In words: KDR (VEGFR2) (enzymatic assay), TR-FRET. In kind it is biochemical. The gist of the method: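 Enzyme at 150 ng/ml was incubated 120 min at room temperature with 500 nM Btn-Flt3 peptide and 3 μM ATP in 50 mM HEPES pH 7.5, 6 mM MnCl2, 1 mM DTT, 0.1 mM Na3VO4, 0.01% Triton-X-100, 1% DMSO final. EDTA stop with Eu-anti-P-Tyr/SA-XL-665, 60 min; TR-FRET read in RFU.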

The next test deals with FGFR1 (h) (Homo sapiens, UniProt P11362). In words: FGFR1 (enzymatic assay), TR-FRET. Particulars: read-out: FGFR 1 pIC50 (converted). In kind it is biochemical. The protocol:
In a final reaction volume of 30 μL, FGFR1 (h) (25 ng/ml) was incubated with 50 mM HEPES pH 7.5, 6 mM MnCl2, 1 mM DTT, 0.1 mM Na3VO4, 0.01% Triton-X-100, 500 nM Btn-Flt3 and 5 μM ATP in the presence of compound (1% DMSO final). […] Time-Resolved Fluorescence Resonance Energy Transfer (TR-FRET) signal (ex340 nm. Em 620 nm, em 655 nm) was measured afterwards and results are expressed in RFU (Relative Fluorescence Units).

Experimental findings from patent publication US10052320B2, “Substituted quinoxalines as FGFR kinase inhibitors” (ASTEX THERAPEUTICS LIMITED, priority 2011, dated 2018) are described below.

Structures are written as SMILES. Where two headings read alike, the source gives them in different places.

Sequence of Ba/F3-FGFR4-transfected cells (P22455 whole entry, change not shown): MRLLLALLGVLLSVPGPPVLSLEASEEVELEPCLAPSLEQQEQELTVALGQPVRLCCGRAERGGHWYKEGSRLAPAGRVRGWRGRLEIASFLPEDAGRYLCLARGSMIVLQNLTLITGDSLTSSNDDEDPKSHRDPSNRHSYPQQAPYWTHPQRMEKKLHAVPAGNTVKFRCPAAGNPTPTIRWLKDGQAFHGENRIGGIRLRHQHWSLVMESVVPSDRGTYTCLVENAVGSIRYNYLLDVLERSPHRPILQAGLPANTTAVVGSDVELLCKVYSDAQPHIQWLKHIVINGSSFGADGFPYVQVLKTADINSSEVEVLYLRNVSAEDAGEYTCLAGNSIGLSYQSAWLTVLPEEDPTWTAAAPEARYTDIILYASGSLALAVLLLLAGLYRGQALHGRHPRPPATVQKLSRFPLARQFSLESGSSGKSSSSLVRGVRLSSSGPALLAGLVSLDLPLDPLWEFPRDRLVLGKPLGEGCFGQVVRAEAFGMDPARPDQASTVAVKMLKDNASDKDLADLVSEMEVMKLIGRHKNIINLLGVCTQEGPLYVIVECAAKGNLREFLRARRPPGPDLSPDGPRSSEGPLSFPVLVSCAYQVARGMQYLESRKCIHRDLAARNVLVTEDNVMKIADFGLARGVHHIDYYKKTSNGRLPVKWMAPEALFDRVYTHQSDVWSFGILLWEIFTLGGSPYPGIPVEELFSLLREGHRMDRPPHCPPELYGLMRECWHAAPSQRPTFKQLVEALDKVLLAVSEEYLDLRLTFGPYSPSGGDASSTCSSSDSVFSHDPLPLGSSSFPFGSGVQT
Sequence of FGFR1 (h) (P11362 22-822): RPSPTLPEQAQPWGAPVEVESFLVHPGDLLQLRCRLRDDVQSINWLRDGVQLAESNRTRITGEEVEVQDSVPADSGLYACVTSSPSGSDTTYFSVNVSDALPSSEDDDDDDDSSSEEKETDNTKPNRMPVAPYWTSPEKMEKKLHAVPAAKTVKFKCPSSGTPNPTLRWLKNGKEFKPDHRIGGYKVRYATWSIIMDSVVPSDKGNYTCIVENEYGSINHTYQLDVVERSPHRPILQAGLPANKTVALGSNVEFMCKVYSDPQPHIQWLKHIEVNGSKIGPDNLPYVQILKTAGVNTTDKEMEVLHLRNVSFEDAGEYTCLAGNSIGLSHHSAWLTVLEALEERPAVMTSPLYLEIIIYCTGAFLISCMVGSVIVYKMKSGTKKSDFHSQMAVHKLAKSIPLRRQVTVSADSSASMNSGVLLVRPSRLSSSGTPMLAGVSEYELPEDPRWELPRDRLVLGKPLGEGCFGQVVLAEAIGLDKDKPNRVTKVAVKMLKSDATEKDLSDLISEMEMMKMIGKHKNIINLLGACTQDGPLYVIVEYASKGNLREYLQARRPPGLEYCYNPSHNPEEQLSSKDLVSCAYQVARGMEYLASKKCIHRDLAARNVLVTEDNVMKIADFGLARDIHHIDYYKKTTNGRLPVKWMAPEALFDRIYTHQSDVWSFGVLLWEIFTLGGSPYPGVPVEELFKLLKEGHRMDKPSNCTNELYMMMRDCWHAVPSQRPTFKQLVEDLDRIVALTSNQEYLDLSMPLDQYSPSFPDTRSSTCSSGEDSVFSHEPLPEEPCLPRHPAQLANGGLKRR
Sequence of Ba/F3-FGFR1-transfected cells (P11362 whole entry, change not shown): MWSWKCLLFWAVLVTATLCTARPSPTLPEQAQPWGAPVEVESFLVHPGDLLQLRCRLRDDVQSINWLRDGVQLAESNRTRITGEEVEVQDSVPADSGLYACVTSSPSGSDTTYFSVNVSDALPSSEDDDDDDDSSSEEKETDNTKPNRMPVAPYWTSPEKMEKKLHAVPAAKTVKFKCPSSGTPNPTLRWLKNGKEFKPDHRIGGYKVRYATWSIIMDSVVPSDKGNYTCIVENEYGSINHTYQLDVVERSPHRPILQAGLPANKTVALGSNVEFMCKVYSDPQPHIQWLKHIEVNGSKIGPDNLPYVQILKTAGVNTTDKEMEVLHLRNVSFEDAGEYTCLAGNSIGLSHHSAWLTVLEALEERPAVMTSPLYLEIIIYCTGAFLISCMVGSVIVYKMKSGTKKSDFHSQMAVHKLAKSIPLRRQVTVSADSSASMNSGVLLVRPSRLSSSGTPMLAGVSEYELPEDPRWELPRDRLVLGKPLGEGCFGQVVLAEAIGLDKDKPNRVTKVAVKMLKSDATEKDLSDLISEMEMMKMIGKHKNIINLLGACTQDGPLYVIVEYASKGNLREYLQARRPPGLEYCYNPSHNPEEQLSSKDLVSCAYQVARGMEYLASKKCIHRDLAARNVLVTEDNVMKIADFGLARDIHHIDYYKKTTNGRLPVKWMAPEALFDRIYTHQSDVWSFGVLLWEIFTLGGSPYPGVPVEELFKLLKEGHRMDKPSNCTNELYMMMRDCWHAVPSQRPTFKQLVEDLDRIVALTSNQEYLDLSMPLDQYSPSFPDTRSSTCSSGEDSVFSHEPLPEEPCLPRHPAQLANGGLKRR
Sequence of FGFR3 (h) (P22607 23-806): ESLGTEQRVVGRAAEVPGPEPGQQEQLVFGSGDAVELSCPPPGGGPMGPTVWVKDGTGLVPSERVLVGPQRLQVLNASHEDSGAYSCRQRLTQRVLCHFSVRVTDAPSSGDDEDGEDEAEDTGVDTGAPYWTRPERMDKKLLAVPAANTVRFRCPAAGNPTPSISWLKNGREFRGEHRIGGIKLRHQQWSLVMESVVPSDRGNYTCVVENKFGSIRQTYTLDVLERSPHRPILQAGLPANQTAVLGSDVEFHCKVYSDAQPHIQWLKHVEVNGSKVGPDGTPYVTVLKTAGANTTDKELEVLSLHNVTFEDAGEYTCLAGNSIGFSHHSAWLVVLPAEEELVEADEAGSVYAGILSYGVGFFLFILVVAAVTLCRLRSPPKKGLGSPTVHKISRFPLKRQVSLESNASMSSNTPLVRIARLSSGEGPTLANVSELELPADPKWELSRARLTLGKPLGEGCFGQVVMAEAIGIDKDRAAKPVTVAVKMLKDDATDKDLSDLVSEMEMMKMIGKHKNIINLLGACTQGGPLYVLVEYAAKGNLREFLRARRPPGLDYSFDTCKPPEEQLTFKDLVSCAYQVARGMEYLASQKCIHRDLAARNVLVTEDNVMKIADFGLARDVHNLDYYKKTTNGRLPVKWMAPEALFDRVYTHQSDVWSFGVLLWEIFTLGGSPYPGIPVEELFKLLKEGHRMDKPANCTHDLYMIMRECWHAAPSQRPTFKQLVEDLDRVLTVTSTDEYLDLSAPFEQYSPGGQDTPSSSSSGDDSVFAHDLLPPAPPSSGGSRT
Sequence of KDR (h) (VEGFR2) (P35968 20-1356): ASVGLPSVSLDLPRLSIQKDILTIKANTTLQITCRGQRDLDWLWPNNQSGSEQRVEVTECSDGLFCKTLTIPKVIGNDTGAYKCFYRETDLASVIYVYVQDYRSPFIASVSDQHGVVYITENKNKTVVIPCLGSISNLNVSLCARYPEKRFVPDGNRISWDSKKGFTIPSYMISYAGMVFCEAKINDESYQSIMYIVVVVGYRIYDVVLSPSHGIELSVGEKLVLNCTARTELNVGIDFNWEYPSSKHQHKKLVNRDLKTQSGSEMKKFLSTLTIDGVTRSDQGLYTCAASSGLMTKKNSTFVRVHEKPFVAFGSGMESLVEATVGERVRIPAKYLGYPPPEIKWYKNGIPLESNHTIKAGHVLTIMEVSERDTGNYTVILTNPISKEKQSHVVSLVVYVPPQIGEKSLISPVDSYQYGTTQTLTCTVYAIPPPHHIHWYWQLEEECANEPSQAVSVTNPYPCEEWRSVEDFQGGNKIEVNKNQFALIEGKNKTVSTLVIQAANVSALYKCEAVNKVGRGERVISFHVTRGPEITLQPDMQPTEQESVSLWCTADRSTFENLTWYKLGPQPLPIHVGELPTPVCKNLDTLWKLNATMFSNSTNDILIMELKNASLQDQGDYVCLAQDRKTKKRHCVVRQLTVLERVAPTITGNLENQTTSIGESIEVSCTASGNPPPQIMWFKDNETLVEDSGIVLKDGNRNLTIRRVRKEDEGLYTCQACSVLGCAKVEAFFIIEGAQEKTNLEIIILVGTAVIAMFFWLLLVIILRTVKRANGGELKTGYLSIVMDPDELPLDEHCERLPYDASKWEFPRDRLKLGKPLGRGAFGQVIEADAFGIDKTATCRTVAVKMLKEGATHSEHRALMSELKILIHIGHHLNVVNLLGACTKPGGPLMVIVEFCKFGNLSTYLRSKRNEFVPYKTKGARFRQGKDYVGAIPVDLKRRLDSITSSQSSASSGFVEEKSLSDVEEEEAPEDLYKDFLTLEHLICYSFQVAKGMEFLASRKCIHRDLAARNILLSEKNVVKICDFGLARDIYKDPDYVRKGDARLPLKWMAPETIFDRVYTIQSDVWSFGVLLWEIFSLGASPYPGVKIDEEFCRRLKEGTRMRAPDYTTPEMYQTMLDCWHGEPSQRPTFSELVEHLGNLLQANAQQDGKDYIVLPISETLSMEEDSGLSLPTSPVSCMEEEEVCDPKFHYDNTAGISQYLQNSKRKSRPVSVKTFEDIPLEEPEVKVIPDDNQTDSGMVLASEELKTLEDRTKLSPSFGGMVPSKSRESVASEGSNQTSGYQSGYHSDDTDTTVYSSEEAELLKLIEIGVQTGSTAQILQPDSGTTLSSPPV

Regarding `COc1cc(OC)cc(N(CCO)c2ccc3ncc(-c4ccc(N5CCNCC5)nc4)nc3c2)c1` [Compound 165], the IC50 was 4.9 nM on FGFR3 (h), 6610 nM in test [1], 129 nM at KDR (h) (VEGFR2) and 3.89 nM on FGFR1 (h). Further, in test [2], the “BAF3-FGFR 1 (MIN IL3) 384 well pIC50” value was found to be 6.56. Further, the “BAF3-FGFR4 pIC50” value in test [3] is listed as 6.6.

As for `COc1cc(OC)cc(N(CCO)c2ccc3ncc(/C(C)=N/OC(C)(C)C)nc3c2)c1` [Compound 171], the IC50 on FGFR3 (h) was 501 nM; in test [1], more than 10000 nM; on KDR (h) (VEGFR2), more than 1000 nM; on FGFR1 (h), 603 nM. Moreover, the “BAF3-FGFR 1 (MIN IL3) 384 well pIC50” value in test [2] is on record as less than 5. Also, the “BAF3-FGFR4 pIC50” value in test [3] is reported as less than 5.

As to `COc1cc(OC)cc(N(CCO)c2ccc3ncc(-c4ccc(N5CCOCC5)nc4)nc3c2)c1` [Compound 19], the IC50 on FGFR3 (h) is 1.95 nM; in test [1], more than 10000 nM; against KDR (h) (VEGFR2), 170 nM; at FGFR1 (h), 3.89 nM. In addition, the “BAF3-FGFR 1 (MIN IL3) 384 well pIC50” value in test [2] is 6.41. Also, in test [3], the “BAF3-FGFR4 pIC50” value amounted to 6.1.

As for `COCC(CN(c1cc(OC)cc(OC)c1)c1ccc2ncc(-c3cccnc3)nc2c1)OC(C)=O` (single isomer, unassigned) [Compound 52], the IC50 at FGFR3 (h) was 28.8 nM; in test [1] it was more than 10000 nM; at KDR (h) (VEGFR2), more than 1000 nM; on FGFR1 (h), 87.1 nM. Further, in test [2], the “BAF3-FGFR 1 (MIN IL3) 384 well pIC50” value was determined as 5.96. Also, the “BAF3-FGFR4 pIC50” value in test [3] is on record as 5.2.

Turning to `COc1cc(OC)cc(N(CCNC(C)C)c2ccc3ncc(-c4ccc(N5CCOCC5)nc4)nc3c2)c1` [Compound 168], the IC50 at FGFR3 (h) is 3.24 nM; in test [1], 7760 nM; at KDR (h) (VEGFR2) it was 63.1 nM; on FGFR1 (h) it was 0.955 nM. Besides, the “BAF3-FGFR 1 (MIN IL3) 384 well pIC50” value in test [2] was 7.04. Moreover, the “BAF3-FGFR4 pIC50” value in test [3] was 6.9.

For `COCC(O)CN(c1cc(OC)cc(OC)c1)c1ccc2ncc(-c3cccnc3)nc2c1` (single isomer, unassigned) [Compound 47], the IC50 at FGFR3 (h) was 22.4 nM; against KDR (h) (VEGFR2), 339 nM; at FGFR1 (h), 21.4 nM. In addition, the “BAF3-FGFR 1 (PLUS IL3) 384 well pIC50” value in test [1] was less than 5. Also, the “BAF3-FGFR 1 (MIN IL3) 384 well pIC50” value in test [2] stood at 6.29. Further, the “BAF3-FGFR4 pIC50” value in test [3] is recorded as 5.5.

For the molecule `COc1cc(OC)cc(N(CCO)c2ccc3ncc(C(=O)Nc4cnn(C)c4)nc3c2)c1` [Compound 184], the IC50 was 110 nM at FGFR3 (h), more than 10000 nM in test [1], more than 1000 nM against KDR (h) (VEGFR2) and 141 nM at FGFR1 (h). Also, the “BAF3-FGFR 1 (MIN IL3) 384 well pIC50” value in test [2] is recorded as 5.28. Also, the “BAF3-FGFR4 pIC50” value in test [3] worked out at 5.1.

With `COc1cc(OC)cc(N(CCNC(C)C)c2ccc3ncc(-c4ccn[nH]4)nc3c2)c1` [Compound 189], the IC50 on FGFR3 (h) is 6.17 nM; in test [1], more than 10000 nM; against KDR (h) (VEGFR2) it was 126 nM; on FGFR1 (h), 2.82 nM. Further, the “BAF3-FGFR 1 (MIN IL3) 384 well pIC50” value in test [2] was 7.29. The “BAF3-FGFR4 pIC50” value in test [3] is listed as 6.23.

Turning to `COc1cc(OC)cc(N(CC2CC2)c2ccc3ncc(N4CCOCC4)nc3c2)c1` [Compound 63], the IC50 at FGFR3 (h) is 138 nM; in test [1], more than 10000 nM; against KDR (h) (VEGFR2) it was 6610 nM; on FGFR1 (h), 537 nM. In addition, in test [2], the “BAF3-FGFR 1 (MIN IL3) 384 well pIC50” value is reported as less than 5. Moreover, in test [3] (384 well), the “BAF3-FGFR4 pIC50” value is less than 5.

As to `COc1cc(OC)cc(N(CCNC(C)C)c2ccc3ncc(C(=O)NCCCN4CCN(C)CC4)nc3c2)c1` [Compound 159], the IC50 was 155 nM at FGFR3 (h), more than 10000 nM in test [1], more than 1000 nM on KDR (h) (VEGFR2) and 31.6 nM at FGFR1 (h). Moreover, the “BAF3-FGFR 1 (MIN IL3) 384 well pIC50” value in test [2] is listed as 5.74. The “BAF3-FGFR4 pIC50” value in test [3] is approximately 5.5.

In the case of `COc1cc(OC)cc(N(CC2CC2)c2ccc3ncc(-c4c[nH]cn4)nc3c2)c1` [Compound 39], the IC50 was 29.5 nM at FGFR3 (h), more than 10000 nM in test [1], 2950 nM against KDR (h) (VEGFR2) and 31.6 nM on FGFR1 (h). The “BAF3-FGFR 1 (MIN IL3) 384 well pIC50” value in test [2] is on record as less than 5. Further, the “BAF3-FGFR4 pIC50” value in test [3] is listed as less than 5.
